Columns and labels:
Assay in all cases: relative viability (nuclei count vs DMSO), 5 days (fraction); higher = more cells survive
[1] = test system: NCI-H2085
Summary of the method: (§1)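 Relative viability equals treated-well nuclei counts divided by vehicle-well nuclei counts. Counts came from 4× images of lung cancer cell lines grown in 1536-well plates for 5 days after pin-tool dosing on the day after seeding. Dosing used one drug alone or a fixed anchor-drug dose plus five library-drug doses (not always all listed) in √10 steps, and values are medians of duplicate plates.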

[2] = test system: NCI-H2126
Summary of the method: as §1

[3] = test system: NCI-H2170
Summary of the method: as §1

[4] = test system: NCI-H2342
Summary of the method: as §1

[5] = test system: NCI-H2405
Summary of the method: as §1

[6] = test system: NCI-H441
Summary of the method: as §1

[7] = test system: NCI-H596
Summary of the method: as §1

[8] = test system: NCI-H650
Summary of the method: as §1

[9] = test system: NCI-H727
Summary of the method: as §1

[10] = test system: RERF-LC-KJ
Summary of the method: as §1

[11] = test system: SK-MES-1
Summary of the method: as §1

COCC1(CO)C(=O)C2CCN1CC2 (stereo unspecified) [PRIMA-1MET] + Cc1cc(Nc2cc(N3CCN(C)CC3)nc(Sc3ccc(NC(=O)C4CC4)cc3)n2)n[nH]1 [Tozasertib] (partner 0.1 µM)
relative viability ([1]; first compound 2 µM): 0.84 | relative viability ([1]; first compound 6.325 µM): 0.828 | relative viability ([1]; first compound 20 µM): 0.227 | relative viability ([2]; first compound 0.2 µM): 1.07 | relative viability ([2]; first compound 0.6325 µM): 0.868 | relative viability ([2]; first compound 2 µM): 0.854 | relative viability ([2]; first compound 6.325 µM): 0.898 | relative viability ([2]; first compound 20 µM): 0.807 | relative viability ([3]; first compound 0.2 µM): 0.9 | relative viability ([3]; first compound 0.6325 µM): 0.671 | relative viability ([3]; first compound 2 µM): 0.677 | relative viability ([3]; first compound 6.325 µM): 0.722 | relative viability ([3]; first compound 20 µM): 0.678 | relative viability ([4]; first compound 0.2 µM): 0.58 | relative viability ([4]; first compound 0.6325 µM): 0.684 | relative viability ([4]; first compound 2 µM): 0.408 | relative viability ([4]; first compound 6.325 µM): 0.405 | relative viability ([4]; first compound 20 µM): 0.349 | relative viability ([5]; first compound 0.2 µM): 0.735 | relative viability ([5]; first compound 0.6325 µM): 0.812 | relative viability ([5]; first compound 6.325 µM): 0.667 | relative viability ([5]; first compound 20 µM): 0.329 | relative viability ([6]; first compound 0.2 µM): 0.629 | relative viability ([6]; first compound 0.6325 µM): 0.667 | relative viability ([6]; first compound 2 µM): 0.77 | relative viability ([6]; first compound 6.325 µM): 0.743 | relative viability ([6]; first compound 20 µM): 0.309 | relative viability ([7]; first compound 0.2 µM): 0.96 | relative viability ([7]; first compound 0.6325 µM): 0.803 | relative viability ([7]; first compound 2 µM): 0.869 | relative viability ([7]; first compound 6.325 µM): 1.02 | relative viability ([7]; first compound 20 µM): 0.102 | relative viability ([8]; first compound 0.2 µM): 0.91 | relative viability ([8]; first compound 2 µM): 0.639 | relative viability ([8]; first compound 6.325 µM): 0.749 | relative viability ([8]; first compound 20 µM): 0.306 | relative viability ([9]; first compound 0.2 µM): 0.549 | relative viability ([9]; first compound 0.6325 µM): 0.543 | relative viability ([9]; first compound 2 µM): 0.643 | relative viability ([9]; first compound 6.325 µM): 0.487 | relative viability ([9]; first compound 20 µM): 0.293 | relative viability ([10]; first compound 0.2 µM): 0.53 | relative viability ([10]; first compound 0.6325 µM): 0.523 | relative viability ([10]; first compound 2 µM): 0.58 | relative viability ([10]; first compound 6.325 µM): 0.498 | relative viability ([10]; first compound 20 µM): 0.431 | relative viability ([11]; first compound 0.2 µM): 1.02 | relative viability ([11]; first compound 0.6325 µM): 0.888 | relative viability ([11]; first compound 2 µM): 0.962 | relative viability ([11]; first compound 6.325 µM): 0.876 | relative viability ([11]; first compound 20 µM): 0.907

— the supplement of paper PMC10307832
